# Laboratory results from article PMC4241505 (Nature communications, 2014).
# Ends that are not written are not given here.
# Test system: cathepsins B, H, and S
# Settings: pH 5
row,Compound,Peptides detected on MALDI after digesting synthetic epitope with cathepsins
1,CC(C)C[C@H](NC(=O)[C@H](CCCCN)NC(=O)[C@H](CC(C)C)NC(=O)[C@@H](NC(=O)[C@H](CC(N)=O)NC(=O)[C@H](CCC(N)=O)NC(=O)[C@H](CCCCN)NC(=O)[C@@H](NC(=O)[C@H](Cc1ccc(O)cc1)NC(=O)[C@H](CCCCN)NC(=O)[C@@H]1CCCN1)C(C)C)[C@@H](C)O)C(=O)N[C@@H](C)C(=O)N[C@H](C(=O)O)[C@@H](C)O [HA(306–318)],PKYVKQNTLK (m/z 1218 Da)
2,NRERRGIALDGKIKHE [hSA(291–306)],NRERRGIALDGKIKHE (m/z 1892 Da) NRERRGIALDGKIK (m/z 1627 Da)
